Data as given in PMC3272328 (2011).
Positions count from the first letter of the chain named.

Assays:
Type in all cases: biochemical
[1] = target: T1, soluble guanylyl cyclase (Bos taurus, UniProt P16068+P19687); test: cGMP ELISA enzyme assay
T1 sequence (P16068 1-619): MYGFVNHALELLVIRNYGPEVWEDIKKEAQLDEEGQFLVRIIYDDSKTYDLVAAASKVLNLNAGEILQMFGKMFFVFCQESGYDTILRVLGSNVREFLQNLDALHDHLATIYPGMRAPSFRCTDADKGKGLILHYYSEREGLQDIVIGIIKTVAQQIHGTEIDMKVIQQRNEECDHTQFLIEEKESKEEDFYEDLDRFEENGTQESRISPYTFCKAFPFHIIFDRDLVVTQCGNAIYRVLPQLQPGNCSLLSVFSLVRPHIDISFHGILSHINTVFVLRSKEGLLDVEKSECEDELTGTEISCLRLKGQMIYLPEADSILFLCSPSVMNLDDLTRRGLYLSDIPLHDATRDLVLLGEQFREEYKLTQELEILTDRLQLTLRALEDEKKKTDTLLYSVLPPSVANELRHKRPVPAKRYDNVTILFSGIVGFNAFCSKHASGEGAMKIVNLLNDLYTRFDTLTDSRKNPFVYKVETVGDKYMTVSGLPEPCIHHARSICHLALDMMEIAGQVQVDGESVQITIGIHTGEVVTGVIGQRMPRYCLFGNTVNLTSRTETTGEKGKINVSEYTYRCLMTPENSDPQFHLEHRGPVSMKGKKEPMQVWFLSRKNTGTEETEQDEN
T1 sequence (P19687 1-691): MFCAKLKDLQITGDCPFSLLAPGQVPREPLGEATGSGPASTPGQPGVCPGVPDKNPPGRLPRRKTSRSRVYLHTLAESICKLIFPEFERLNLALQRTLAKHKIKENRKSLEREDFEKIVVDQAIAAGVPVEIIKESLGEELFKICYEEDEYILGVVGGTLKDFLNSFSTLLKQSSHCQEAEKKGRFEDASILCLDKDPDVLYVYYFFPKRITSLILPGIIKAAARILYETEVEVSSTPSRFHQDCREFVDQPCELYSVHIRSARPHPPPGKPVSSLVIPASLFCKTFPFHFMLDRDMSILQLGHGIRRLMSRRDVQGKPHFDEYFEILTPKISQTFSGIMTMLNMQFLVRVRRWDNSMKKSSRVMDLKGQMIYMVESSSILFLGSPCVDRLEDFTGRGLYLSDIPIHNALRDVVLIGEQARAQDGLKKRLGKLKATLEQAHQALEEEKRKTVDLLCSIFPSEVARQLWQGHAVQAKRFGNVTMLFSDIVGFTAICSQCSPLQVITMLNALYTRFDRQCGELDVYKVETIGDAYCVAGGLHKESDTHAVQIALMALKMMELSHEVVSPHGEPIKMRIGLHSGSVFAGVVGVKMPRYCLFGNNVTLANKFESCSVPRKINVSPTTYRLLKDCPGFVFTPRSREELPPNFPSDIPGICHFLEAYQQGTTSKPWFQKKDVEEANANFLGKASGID

[2] = target: T2, soluble guanylyl cyclase (Homo sapiens, UniProt Q02108+Q02153); test: cGMP ELISA enzyme assay
T2 sequence (Q02153 1-619): T1 sequence (P16068 1-619) with D126E, S290L, T574S, E615K, E618D, N619D
T2 sequence (Q02108 1-690): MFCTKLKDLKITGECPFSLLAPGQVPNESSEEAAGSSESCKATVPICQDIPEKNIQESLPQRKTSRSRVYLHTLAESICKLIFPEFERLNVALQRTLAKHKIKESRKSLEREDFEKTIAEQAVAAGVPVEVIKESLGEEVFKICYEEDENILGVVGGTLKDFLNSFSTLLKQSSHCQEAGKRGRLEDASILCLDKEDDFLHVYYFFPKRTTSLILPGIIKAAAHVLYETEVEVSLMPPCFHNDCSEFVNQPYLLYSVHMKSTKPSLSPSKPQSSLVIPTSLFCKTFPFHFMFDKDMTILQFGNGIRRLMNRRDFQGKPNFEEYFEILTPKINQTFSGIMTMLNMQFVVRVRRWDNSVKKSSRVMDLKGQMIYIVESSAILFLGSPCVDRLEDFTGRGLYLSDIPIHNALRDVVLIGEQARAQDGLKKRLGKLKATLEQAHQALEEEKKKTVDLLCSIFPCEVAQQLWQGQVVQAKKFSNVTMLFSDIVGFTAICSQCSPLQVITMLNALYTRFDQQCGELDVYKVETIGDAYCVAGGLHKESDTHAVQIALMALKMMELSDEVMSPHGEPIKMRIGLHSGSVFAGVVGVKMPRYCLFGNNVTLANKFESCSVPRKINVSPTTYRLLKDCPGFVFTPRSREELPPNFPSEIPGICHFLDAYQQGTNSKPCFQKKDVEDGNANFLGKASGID

[3] = target: T1, soluble guanylyl cyclase; test: cGMP production by ELISA at varied GTP

## Nc1nc(=O)c2ncn([C@H]3C=C[C@@H](COP(=O)(O)OP(=O)(O)OP(=O)(O)O)C3)c2[nH]1 [carbovir triphosphate]
[1]
  Ki: 55 µM
[2]
  cGMP ELISA enzyme assay: able to inhibit the activity of purified soluble guanylyl cyclase (both purified native bovine enzyme and recombinant human enzyme)

## Nc1nc2c(ncn2[C@@H]2O[C@H](COP(=O)(O)OP(=O)(O)OP(=O)(O)O)[C@@H](O)[C@H]2O)c(=O)[nH]1 [guanosine triphosphate]
[3]
  cGMP production by ELISA at varied GTP; Lineweaver-Burk plot: we measured the amount of inhibition while varying the concentrations of GTP and carbovir triphosphate
